Consider three compounds from patent US20210205236A1, “THERAPEUTIC COMBINATIONS OF BOSWELLIA EXTRACT AND CANNABINOIDS” (priority 2018, published 2021).

Like-named read-outs stand apart in the source and are kept apart here.

The target in assay [1] is T1, CB1 receptor (Homo sapiens, UniProt P21554).
T1 construct: expressed in transfected cells
Format: cell-based.

The target of assay [2] is T1, CB1 receptor. Kind of assay: cell-based. In kind it is cell-based. Conditions: for Effect of cannabinoid on AKBA CB1R positive allosteric activity: AKBA 50 and 100 μM, THCA 10 μM or CBD 1 μM; for Experiment 1 % of activity / Experiment 2 % of activity / Experiment 3 % of activity: CP55940-induced activity = 100%.
The mark [3] stands for this setting: CBD 1 μM without AKBA, Table 3 data re-expressed as fold change.
Where [4] appears, read: THCA or THC 10 μM without AKBA, Table 3 data re-expressed as fold change.

T1 sequence (P21554 whole entry): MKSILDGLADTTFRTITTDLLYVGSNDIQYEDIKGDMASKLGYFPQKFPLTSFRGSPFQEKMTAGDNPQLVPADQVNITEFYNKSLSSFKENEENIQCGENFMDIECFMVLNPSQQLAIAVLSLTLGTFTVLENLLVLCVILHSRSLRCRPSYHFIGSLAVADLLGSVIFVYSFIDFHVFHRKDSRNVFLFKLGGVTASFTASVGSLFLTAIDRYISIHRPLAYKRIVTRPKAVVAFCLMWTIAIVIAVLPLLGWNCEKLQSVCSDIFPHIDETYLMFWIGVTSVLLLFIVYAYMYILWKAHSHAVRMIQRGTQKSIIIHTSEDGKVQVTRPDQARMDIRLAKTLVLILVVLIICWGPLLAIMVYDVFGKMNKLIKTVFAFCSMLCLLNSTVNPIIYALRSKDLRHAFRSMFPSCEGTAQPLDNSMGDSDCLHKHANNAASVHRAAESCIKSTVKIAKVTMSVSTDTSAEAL

Take `CCCCCCC(C)(C)c1ccc([C@@H]2C[C@H](O)CC[C@H]2CCCO)c(O)c1` [CP, CP-55940, reference compound]: the “Experiment 1 Fold change” value in assay [1] and in assay [2] was 2.5 Fold change each time. Also, the “Experiment 2 Fold change” value in assay [1] and in assay [2] was 2.5 Fold change each time. The “Experiment 3 Fold change” value in assay [1] and in assay [2] was 2.5 Fold change throughout. In addition, the activity at […] in assay [2] (read-out: Experiment 1 % of activity), in assay [2] (read-out: Experiment 2 % of activity) and in assay [2] (read-out: Experiment 3 % of activity) was 100% in each case.

In the case of `C=C(C)[C@@H]1CCC(C)=C[C@H]1c1c(O)cc(CCCCC)cc1O` [CBD, cannabidiol, reference compound], the “Effect of cannabinoid on AKBA CB1R positive allosteric activity” value in assay [2] is “almost abolished”. For the same compound, in assay [2] (CBD 1 μM without AKBA, % of activity data), the “Conclusions: Is CB1R antagonist effect observed?” value is given as “+ (A reduction of the percentage below 50% indicates CB1R antagonistic activity)”. In assay [2] (CBD 1 μM without AKBA), the “Experiment 1 % of activity” value amounted to 66.2%, the “Experiment 2 % of activity” value is 70.7% and the “Experiment 3 % of activity” value was found to be 69.5%. Further, in assay [2] (setting [3]), the “Experiment 1 Fold change” value was 1.7 Fold change, the “Experiment 2 Fold change” value is on record as 1.8 Fold change and the “Experiment 3 Fold change” value is on record as 1.7 Fold change. In assay [2] (CBD 1 μM without AKBA, positive allosteric activity, fold change data), the “Conclusions: Is CB1R antagonist effect observed?” value is recorded as “Negative (Only treatments that the mean of three consecutive independent experiments show a positive result (CB1R activity ≥ 4-fold change) are considered positive CB1R allosteric agonists)”.

`CCCCCc1cc2c(c(O)c1C(=O)O)[C@@H]1C=C(C)CC[C@H]1C(C)(C)O2` [THCA, tetrahydrocannabinolic acid]: in assay [1] (THCA or THC alone, 10 μM), the “Conclusions: Is CB1R agonist effect observed?” value is “Negative (Only treatments that the mean of three consecutive independent experiments shows a positive result: CB1R activity ≥ 2.5-fold increase or ≥ 4-fold increase are considered CB1R agonists or CB1R positive allosteric modulators)”, the “Experiment 1 Fold change” value is 1.2 Fold change, the “Experiment 2 Fold change” value came to 1.1 Fold change and the “Experiment 3 Fold change” value is 0.8 Fold change. Further, the “Effect of cannabinoid on AKBA CB1R positive allosteric activity” value in assay [2] is on record as “reduced the AKBA allosteric activity”. In addition, the “Conclusions: Is CB1R antagonist effect observed?” value in assay [2] (THCA or THC 10 μM without AKBA, % of activity data) is “Negative (Only treatments that the mean of three consecutive independent experiments show a positive result (CB1R activity ≤ 50%) are considered antagonists of CB1R activity)”. In assay [2] (THCA or THC 10 μM without AKBA), the “Experiment 1 % of activity” value is listed as 163.2%, the “Experiment 2 % of activity” value turned out to be 118.4% and the “Experiment 3 % of activity” value is 86.5%. In assay [2] (setting [4]), the “Experiment 1 Fold change” value stood at 4.1 Fold change, the “Experiment 2 Fold change” value worked out at 3.0 Fold change and the “Experiment 3 Fold change” value is on record as 2.2 Fold change. In addition, the “Conclusions: Is CB1R antagonist effect observed?” value in assay [2] (THCA or THC 10 μM without AKBA, positive allosteric activity, fold change data) was “Negative (Only treatments that the mean of three consecutive independent experiments show a positive result (CB1R activity ≥ 4-fold change) are considered positive CB1R allosteric agonists)”.
